# Measured values published in the METLIN SMRT retention time set (Domingo-Almenara et al. 2019).
# Experiment: gradient 5% acetonitrile 3 min, to 50% in 2 min, to 85% in 15 min, held 3 min, 100 µL/min
# Conditions: column: Zorbax Extend-C18 2.1 x 50 mm; eluents: water / acetonitrile, 0.1% formic acid
# In short: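 Standards, all pure, were combined into mixtures of ~100 molecules and run at 100 μL/min on a Zorbax Extend-C18 column (2.1 × 50 mm, 1.8 μm) with water and acetonitrile, each containing 0.1% formic acid. A coupled quadrupole time-of-flight mass spectrometer operated in positive and negative ionization mode. Retention time values come from computationally picked adduct peaks, each inspected manually.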
row,Compound,RP-LC retention time [s]
1,CC(C)CCC(=O)N1CCN(c2nc(CN3CCOCC3)cs2)CC1,624
2,Cc1ccc(S(=O)(=O)N2CCCC(CCC(=O)N3CCCCC3)C2)cc1 (configuration not stated),962
3,Cc1oc(C2CCN(S(=O)(=O)c3ccc(C#N)cc3)CC2)nc1C(=O)N(C)C,762
4,CC1CN(CC(=O)N2CCN(c3ncccn3)CC2)c2ccccc2S1 (configuration not stated),918
5,CCCN(CC1CCOC1)C(=O)Nc1ccccc1Br (configuration not stated),832
6,CCN1C(=O)C2(CCN(S(=O)(=O)c3ccc(C)cc3)CC2)c2ccccc21,1050
7,O=C(CN1c2ccc(F)cc2-c2ccccc2S1(=O)=O)NCc1cccnc1,646
8,COc1ccc(NS(=O)(=O)c2c(C)sc(C)c2-c2cc(C(F)(F)F)on2)cc1OC,1020
9,O=C(CCc1nc2ccccc2n(CC(=O)NC2CCCCC2)c1=O)NC1CCCCC1,844
10,Cc1ccc(CNC(=O)CN2CCN(C(=O)Nc3ccc(Br)cc3)CC2=O)o1,748
11,CSc1nc(N2CCCC2)c2cnn(CCNC(=O)c3ccc(=O)[nH]c3)c2n1,593
12,Cc1csc(NC(=O)C2CCN(S(=O)(=O)c3ccc4c(c3)sc(=O)n4C)CC2)n1,782
13,O=C(NCCOCCOCCNC(=O)Nc1ccccc1)Nc1ccccc1,679
14,O=C(CSCc1ccccc1)N1CCC(c2nnc(C(F)(F)F)o2)CC1,857
15,O=C(Cn1cc(-c2nnco2)c2ccccc21)NCc1cccc(Cl)c1,817
16,Cc1cc(C)cc(N2CCC(NC(=O)Cc3cccs3)C2=O)c1 (configuration not stated),862
17,O=C(NCCc1cccs1)C1CCCN(c2nc3ccsc3c(=O)n2Cc2ccccc2)C1 (configuration not stated),949
18,O=C(NC1CCCC1)N1CCCCC1c1nncn1-c1ccccc1 (configuration not stated),602
19,CC1=C(c2ccc(C)c(C)c2)S(=O)(=O)N=C1N1CCCN(C(=O)c2ccccn2)CC1,771
20,Cc1nnc2c(=O)n(CC(=O)NCc3ccc(F)cc3Cl)c3cccnc3n12,710
21,O=C(NCC(O)Cc1ccccc1)c1cccc(Cl)c1 (configuration not stated),757
22,O=C(c1ccc(-c2ccc3c(c2)CCN3C(=O)Nc2ccc3c(c2)OCCO3)cc1)N1CCOCC1,804

row,Compound,RP-LC retention time [s]
1,Cc1cc(Cl)ccc1NC(=O)CN(C)S(=O)(=O)c1cc(C(=O)N2CCC(C)CC2)n(C)c1,934
2,CC(C)CNC(=O)N1CCCC(Cc2nncn2C)C1 (configuration not stated),550
3,Cc1ccc(CNC(=O)CN2C(=O)CCCc3cc(S(=O)(=O)N4CCC(C)CC4)ccc32)cc1,961
4,CC(C)c1ccc(NC(=O)C2CC(=O)N(c3cccc(NC(=O)C4CCC4)c3)C2)cc1 (configuration not stated),929
5,CC(=O)N1CCc2[nH]c3ccc(C(=O)NC4CCN(Cc5ccccc5)CC4)cc3c2C1,585
6,COc1ccc(CNC(=O)c2ccc3[nH]c4c(c3c2)CN(C(C)=O)CC4)c(OC)c1,680
7,O=C(NCc1cccc(Cl)c1)C1CCN(c2cnc(N3CCCC3)nc2)CC1,690
8,COc1cc(OC)c(N(C)C(=O)C2CCCN(c3ncnc4c3nc3n4CCCCC3)C2)cc1Cl (configuration not stated),854
9,COc1cc([C@H]2c3cc4c(cc3[C@@H](O)[C@H](CO)[C@H]2C(=O)Nc2cnccn2)OCO4)cc(OC)c1OC,626
10,CN(C(=O)Cn1cnc2c(-c3ccc(F)cc3)csc2c1=O)c1ccccc1,948
11,CCc1ccccc1N1C[C@@]23C=C[C@@H](O2)[C@H](C(=O)OC)[C@@H]3C1=O,730
12,O=S(=O)(Nc1cccnc1)c1ccc(Cl)c(-c2nnc(-c3ccccc3)o2)c1,807
13,CC(=O)c1ccc(NC(=O)C(C)Oc2cc(C(F)(F)F)c3c(C)nn(C)c3n2)cc1 (configuration not stated),968
14,CCOC(=O)c1c(NCCc2cccs2)c2cc(Cl)ccc2[nH]c1=O,826
15,CCCNc1cc(N2CCCC(CCC(=O)N3CCN(C(=O)c4ccco4)CC3)C2)ncn1 (configuration not stated),628
16,CN1c2cc(C(=O)N3CCN(c4ccc(F)cc4)CC3)ccc2C(=O)N2CCCCC21 (configuration not stated),840
17,CN1CCN(C(=O)c2csc(N3CCN(c4ccccc4F)CC3)n2)CC1,649
18,COCCNC(=O)CN1C(=O)C2CCCCN2c2ccc(S(=O)(=O)N3CCCC3)cc21 (configuration not stated),728
19,Cc1cc(C)cc(NC(=O)CSc2nccc(N3CCN(c4cc(C)ccc4C)CC3)n2)c1,989
20,CCc1cccc(C)c1Nc1c(-c2ccc(N3CCOCC3)cc2)nc2cnccn12,817
21,CCCN1C(=O)COc2ccc(-c3noc(-c4cc(OC)c(OC)c(OC)c4)n3)cc21,1140
22,CCC(NC(=O)c1ccc2c(c1)nc1n2CCN(Cc2ccccc2)C1=O)c1cccs1 (configuration not stated),836

row,Compound,RP-LC retention time [s]
1,COC(=O)C1C(=O)C2=C(CC1C)NC(=O)CC2c1cccc(OC)c1 (configuration not stated),726
2,O=C(NCC1CCCO1)c1ccc(-c2cnc(Oc3ccccc3)nc2)cc1 (configuration not stated),779
3,NC(=O)C1CCN(C(=O)NC2CC(=O)N(c3ccc(Cl)cc3)C2)CC1 (configuration not stated),587
4,Cc1ccc2c(c1)N(Cc1nc(-c3ccc4c(c3)OCO4)no1)C(=O)CO2,1020
5,O=C(c1cccs1)N1CCc2ccc([N+](=O)[O-])cc2C1,792
6,CCOC(=O)c1c(C)[nH]c(C(=O)N2CCC(CC(=O)NCc3ccc(OC)cc3)CC2)c1C,694
7,O=C(CCn1nnc2cc(-c3noc(-c4ccc(Br)o4)n3)ccc21)N1CCOCC1,822
8,CC(C)n1c(=O)oc2cc(-c3noc(CNC(=O)c4ccccc4)n3)ccc21,851
9,CCc1ccccc1NC(=O)N1CCCC1c1nc(-c2ccccc2)no1 (configuration not stated),987
10,COc1ccc(-c2ccc(=O)n(Cc3nc(-c4ccccc4)no3)n2)cc1,954
11,COC(=O)c1cc(OCC(=O)Nc2ccc3c(c2)OCO3)c2cc(Cl)ccc2n1,863
12,Cc1ccc(CNS(=O)(=O)c2cc3n(c2)CCCNC3=O)cc1C,739
13,Cc1ccc([N+](=O)[O-])cc1NC(=O)Nc1cccc(F)c1,1010
14,O=C(c1ccc(F)c(Cl)c1)N1CCN(c2cc(-c3ccc(F)cc3)[nH]n2)CC1,894
15,COc1ccc(OC)c(S(=O)(=O)N(C)C)c1,702
16,COc1ccc(N2CC(c3noc(-c4cccc(F)c4)n3)CC2=O)cc1OC (configuration not stated),847
17,Cc1cccc(-c2noc(-c3nn(-c4cccc(F)c4)ccc3=O)n2)c1,928
18,Cc1cc(NC(=O)NCC(=O)N2CCc3ccccc32)ccc1Br,959
19,CC(C)NC(=O)c1ccc(OCC2CCCN(C(=O)c3cccs3)C2)cc1 (configuration not stated),818
20,CCOc1ccc(CC(=O)Nc2cc(-c3cccnc3)no2)cc1,760
21,Cc1ccc(Sc2nccnc2N2CCCC(C(=O)NCc3ccccc3C)C2)cc1 (configuration not stated),1150
22,Cc1ccc(S(=O)(=O)N(C)CC2CCOCC2)c(C)c1,896

row,Compound,RP-LC retention time [s]
1,Cc1ccc2c(c1)C(=O)NC1(CCN(C(=O)Cc3ccc(Cl)cc3)CC1)N2C,850
2,CCc1ccc2c(c1)cc(S(=O)(=O)c1ccccc1)c(=O)n2CC(=O)NC1CCCC1,942
3,CC(C)NC(=O)c1ccc(C(C)C)cc1,918
4,COc1ccc(Cl)cc1S(=O)(=O)N1CCc2nc(-c3ccc(F)cc3)ncc2C1,1130
5,CCCCCNC(=O)C1CCN(c2cc(Sc3cc(C)ccc3C)ncn2)CC1,951
6,O=C(c1ccc(-c2cccnc2)nc1)N1CCN(c2ccccc2Cl)CC1,764
7,COc1ccc(C2C(C(=O)NCCC(C)C)CCC(=O)N2c2cc(OC)c(OC)c(OC)c2)cc1 (configuration not stated),744
8,CCOc1ccccc1NS(=O)(=O)c1cc(-c2cc(C(F)(F)F)on2)sc1C,1120
9,COc1cccc2c1OC1(C)CC2C(S(=O)(=O)c2ccc(C)c(C)c2)C(=O)N1C (configuration not stated),931
10,COc1ccc(Cl)cc1NC(=O)N1CCC2(CC1)NC(=O)c1cc(C)ccc1N2C,895
11,O=C(C1=CN(c2ccc(Cl)cc2)c2cc(F)ccc2S1(=O)=O)N1CCOCC1,830
12,Cc1ccc(NC(=O)Cn2nc(N3CCCC(C)C3)c3ccccc3c2=O)cc1C (configuration not stated),1240
13,CCc1cc(=O)n(CC(=O)Nc2cc(C)on2)c(-c2ccccc2)n1,938
14,CN(C)C(=O)c1ccc2c(c1)nc(CN1CCN(C(=O)c3ccccc3)CC1)n2C,597
15,Cc1cccc(-c2nnc(Cc3nc(-c4ccccc4)no3)o2)c1,1040
16,O=C(C1CCN(S(=O)(=O)c2ccc3[nH]c(=O)ccc3c2)CC1)N1CCN(c2ccccc2)CC1,735
17,CN(C)C(=O)N1CC(c2noc(-c3cccnc3)n2)C2(CCOCC2)C1 (configuration not stated),634
18,CC(C)Cn1c(=O)c2cc(C(=O)NCc3cccs3)nn2c2ccccc21,995
19,O=S(=O)(c1cccc(F)c1)N1CC(c2nc(CCOCC3CCOCC3)no2)C1,686
20,O=C(Cn1nc(N2CCSCC2)c2ccccc2c1=O)Nc1ccc(Br)cc1,1000
21,Cc1cc(C(=O)NC2CCCC2)c2cccc(Cl)c2n1,840
